From patent US9115101B2 (Genentech, Inc., priority 2012, dated 2015)
Like-named read-outs stand apart in the source and are kept apart here.

Molecular target: T1, RORc ligand binding domain (Homo sapiens, UniProt P51449)
T1 construct: host or cells: E. coli
T1 sequence (P51449 269-508 limits assumed): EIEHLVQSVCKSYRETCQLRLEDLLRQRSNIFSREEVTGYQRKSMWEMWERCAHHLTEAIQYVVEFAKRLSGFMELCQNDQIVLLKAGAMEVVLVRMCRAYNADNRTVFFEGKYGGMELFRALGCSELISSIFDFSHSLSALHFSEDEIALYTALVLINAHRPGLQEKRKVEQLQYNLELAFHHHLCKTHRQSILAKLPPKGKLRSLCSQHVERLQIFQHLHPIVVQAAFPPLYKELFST
Test: In Vitro RORc Ligand Binding Assay (25-[3H]hydroxycholesterol radioligand filtration)
Settings: read-out: RORc IC50

[1] = In Vitro RORc Ligand Binding Assay, Table 4

Row | IC50 [1] [nM] | IC50 [nM] | Structure (SMILES)
1 | 1220 | – | C[C@H]1CCC(c2ccccc2)S(=O)(=O)N1Cc1ccc(C(=O)N2CCC3(CCOC3)C2)cc1 (stereo partly drawn) [Example 358, [4-((3S)-Methyl-1,1-dioxo-6-phenyl-[1,2]thiazinan-2-ylmethyl)-phenyl]-(2-oxa-7-aza-spiro[4.4]non-7-yl)-methanone]
2 | 898 | – | C[C@H](O)C(=O)N1CCN(c2ccc(CN3CCCCC(c4ccccc4)S3(=O)=O)cc2)CC1 (single isomer, unassigned) [Example 311, 1-{4-[4-(1,1-Dioxo-7-phenyl-[1,2]thiazepan-2-ylmethyl)-phenyl]-piperazin-1-yl}-2-hydroxy-propan-1-one]
3 | 119 | – | C[C@H]1CCC(c2ccccc2)S(=O)(=O)N1Cc1ccc(OC2CCS(=O)(=O)CC2)cc1F (single isomer, unassigned) [Example 39]
4 | 6 | – | CC(=O)N1CCN(c2ccc(CN3[C@@H](C)CCC(c4cccc(C)c4)S3(=O)=O)c(F)c2)CC1 (single isomer, unassigned) [Example 192]
5 | 2060 | – | CC(=O)N1CCN(c2ccc(CN3[C@@H](C)CCC(c4ccc(C#N)cc4)S3(=O)=O)c(F)c2)CC1 (single isomer, unassigned) [Example 173]
6 | 85 | – | C[C@H]1CCC(c2ccccc2)S(=O)(=O)N1Cc1ccc(N2CCC(C(N)=O)CC2)cc1F (single isomer, unassigned) [Example 221]
7 | 59 | – | CC1=C(N2CCN(c3ccc(CN4[C@@H](C)CCC(c5ccccc5)S4(=O)=O)c(F)c3)CC2)CCC1=O (stereo partly drawn) [Example 189, 3-{4-[3-Fluoro-4-((3S)-3-methyl-1,1-dioxo-6-phenyl-[1,2]thiazinan-2-ylmethyl)-phenyl]-piperazin-1-yl}-2-methyl-cyclopent-2-enone]
8 | 188 | – | CC(=O)N1CCN(c2ccc(CN3[C@H](C)COCC(c4ccccc4)S3(=O)=O)c(F)c2)CC1 (single isomer, unassigned) [Example 27]
9 | – | 368 | COC(=O)[C@H]1CN(C(C)=O)CCN1c1ccc(CN2[C@@H](C)CCC(c3ccccc3)S2(=O)=O)c(F)c1 (stereo partly drawn) [Example 416, (R)-4-Acetyl-1-[3-fluoro-4-((3S)-methyl-1,1-dioxo-6-phenyl-[1,2]thiazinan-2-ylmethyl)-phenyl]-piperazine-2-carboxylic acid methyl ester]
10 | 227 | – | CC(=O)N1CCN(c2ccc(CN3CCCCC(c4ccccc4)S3(=O)=O)cc2)CC1 (single isomer, unassigned) [Example 307, 1-{4-[4-(1,1-Dioxo-7-phenyl-[1,2]thiazepan-2-ylmethyl)-phenyl]-piperazin-1-yl}-ethanone]
11 | 58 | – | CC(=O)N1CCN(c2ccc(CN3[C@@H](C)CCC(c4cccc(F)c4)S3(=O)=O)c(F)c2)CC1 (single isomer, unassigned) [Example 127]
12 | – | 74 | C[C@H]1CCC(c2ccccc2)S(=O)(=O)N1Cc1ccc(NC(=O)C2CCN(S(C)(=O)=O)CC2)cc1F (stereo partly drawn) [Example 459, 1-Methanesulfonyl-piperidine-4-carboxylic acid [3-fluoro-4-((3S)-methyl-1,1-dioxo-6-phenyl-[1,2]thiazinan-2-ylmethyl)-phenyl]-amide]
